Values after ≈ are worked out from the molar mass of the structure shown. Active and inactive are the calls of the source. The rule behind the calls is not given here. Peptide text beside a SMILES is read from it.
Tests used:
Staphylococcus aureus [1] = assay: Antibacterial activity against Staphylococcus aureus ATCC 29213 incubated overnight by standard microtiter dilution method; assay type: functional
Staphylococcus aureus [2] = assay: Antibacterial activity against methicillin-resistant Staphylococcus aureus ATCC 43300 incubated overnight by standard microtiter dilution method; assay type: functional
[3] = test system: Staphylococcus epidermidis; assay: Antibacterial activity against methicillin-resistant Staphylococcus epidermidis ATCC 12228 incubated overnight by standard microtiter dilution method; assay type: functional
Enterococcus faecalis = assay: Antibacterial activity against Enterococcus faecalis ATCC 29212 incubated overnight by standard microtiter dilution method; assay type: functional
Escherichia coli = assay: Antibacterial activity against Escherichia coli O157:H7 CICC 21530 incubated overnight by standard microtiter dilution method; assay type: functional
Salmonella paratyphi = assay: Antibacterial activity against Salmonella paratyphi A CICC 21501 incubated overnight by standard microtiter dilution method; assay type: functional, Salmonella enterica subsp. enterica serovar Paratyphi A; settings: Salmonella enterica
[4] = test system: Salmonella enterica subsp. enterica serovar Paratyphi B; assay: Antibacterial activity against Salmonella paratyphi B CICC 21495 incubated overnight by standard microtiter dilution method; assay type: functional
[5] = Antibacterial activity against Salmonella paratyphi C CICC 21512 incubated overnight by standard microtiter dilution method; assay type: functional, Salmonella enterica subsp. enterica serovar Paratyphi C; settings: Salmonella enterica
[6] = Antibacterial activity against Salmonella enterica subsp. enterica serovar Choleraesuis ATCC 13312 incubated overnight by standard microtiter dilution method; assay type: functional
[7] = Antibacterial activity against Salmonella enterica subsp. enterica serovar Choleraesuis CICC 21493 incubated overnight by standard microtiter dilution method; assay type: functional
Salmonella enteritidis = assay: Antibacterial activity against Salmonella enteritidis CICC 21527 incubated overnight by standard microtiter dilution method; assay type: functional, Salmonella enterica subsp. enterica serovar Enteritidis; settings: Salmonella enterica
[8] = Antibacterial activity against Salmonella wandsworth CICC 21504 incubated overnight by standard microtiter dilution method; assay type: functional, Salmonella enterica subsp. enterica serovar Wandsworth; settings: Salmonella enterica
Salmonella typhimurium [9] = assay: Antibacterial activity against Salmonella typhimurium CICC 21483 incubated overnight by standard microtiter dilution method; assay type: functional, Salmonella enterica subsp. enterica serovar Typhimurium; settings: Salmonella enterica
Salmonella typhimurium [10] = assay: Antibacterial activity against Salmonella typhimurium CICC 21913 incubated overnight by standard microtiter dilution method; assay type: functional, Salmonella enterica subsp. enterica serovar Typhimurium; settings: Salmonella enterica
[11] = Antibacterial activity against Salmonella blockley CICC 21489 incubated overnight by standard microtiter dilution method; assay type: functional, Salmonella enterica subsp. enterica serovar Blockley; settings: Salmonella enterica
[12] = Antibacterial activity against Salmonella dublin CICC 21497 incubated overnight by standard microtiter dilution method; assay type: functional, Salmonella enterica subsp. enterica serovar Dublin; settings: Salmonella enterica
Salmonella typhimurium [13] = assay: Antibacterial activity against Salmonella typhimurium DT104 ATCC 700408 incubated overnight by standard microtiter dilution method; assay type: functional, Salmonella enterica subsp. enterica serovar Typhimurium; settings: Salmonella enterica
Candida albicans = assay: Antifungal activity against Candida albicans ATCC 10231 incubated overnight by standard microtiter dilution method; assay type: functional
Erythrocyte = assay: Hemolytic activity in human Red blood cells assessed as hemolysis incubated for 1 hrs by absorbance based microplate reader analysis; assay type: toxicity, cell-based
Salmonella typhimurium [14] = assay: Antibacterial activity against Salmonella typhimurium DT104 in the presence of NaCl by MH broth based assay; assay type: functional, Salmonella enterica subsp. enterica serovar Typhimurium; settings: Salmonella enterica
Salmonella typhimurium [15] = assay: Antibacterial activity against Salmonella typhimurium DT104 in the presence of KCl by MH broth based assay; assay type: functional, Salmonella enterica subsp. enterica serovar Typhimurium; settings: Salmonella enterica
Salmonella typhimurium [16] = assay: Antibacterial activity against Salmonella typhimurium DT104 in the presence of NH4Cl by MH broth based assay; assay type: functional, Salmonella enterica subsp. enterica serovar Typhimurium; settings: Salmonella enterica
Salmonella typhimurium [17] = assay: Antibacterial activity against Salmonella typhimurium DT104 in the presence of CaCl2 by MH broth based assay; assay type: functional, Salmonella enterica subsp. enterica serovar Typhimurium; settings: Salmonella enterica
Salmonella typhimurium [18] = assay: Antibacterial activity against Salmonella typhimurium DT104 in the presence of MgCl2 by MH broth based assay; assay type: functional, Salmonella enterica subsp. enterica serovar Typhimurium; settings: Salmonella enterica
Salmonella typhimurium [19] = assay: Antibacterial activity against Salmonella typhimurium DT104 in the presence of FeCl3 by MH broth based assay; assay type: functional, Salmonella enterica subsp. enterica serovar Typhimurium; settings: Salmonella enterica
Salmonella typhimurium [20] = assay: Antibacterial activity against Salmonella typhimurium DT104 in the presence 25% inactivated mouse serum by MH broth based assay; assay type: functional, Salmonella enterica subsp. enterica serovar Typhimurium; settings: Salmonella enterica
Salmonella typhimurium [21] = assay: Antibacterial activity against Salmonella typhimurium DT104 in the presence 50% inactivated mouse serum by MH broth based assay; assay type: functional, Salmonella enterica subsp. enterica serovar Typhimurium; settings: Salmonella enterica
[22] = Hemolytic activity in human Red blood cells assessed as hemolysis at 128 ug/ml incubated for 1 hrs by absorbance based microplate reader analysis relative to control; assay type: toxicity, cell-based, Erythrocyte; settings: red blood cells (erythrocytes), at 128 µg/mL, read-out: Activity
[23] = Cytotoxicity against mouse RAW264.7 cells assessed as cell viability at 128 ug/ml incubated for 24 hrs by MTT assay; assay type: toxicity, cell-based; settings: at 128 µg/mL, read-out: Activity
Salmonella typhimurium [24] = assay: Antibacterial activity against multi-drug resistant Salmonella typhimurium DT104 assessed as inhibition of bacterial growth at 0.5 to 2 times of MIC by MH agar based serial dilution method; assay type: functional, organism-based; settings: Salmonella enterica subsp. enterica serovar Typhimurium, time <= 120.0 min, TDE = time-dependent effect
Salmonella typhimurium [25] = assay: Antibacterial activity against multi-drug resistant Salmonella typhimurium DT104 assessed as inhibition of bacterial growth measured upto 120 mins by MH agar based serial dilution method; assay type: functional, organism-based; settings: Salmonella enterica subsp. enterica serovar Typhimurium
Lipopolysaccharide (LPS) = assay: Displacement of BODIPY-TR-cadaverine from Salmonella typhimurium LPS assessed as increase in fluorescence intensity by fluorescence spectrophotometric analysis; settings: Salmonella enterica subsp. enterica serovar Typhimurium; dose 0.25-8 µg/ml
RAW264.7 [26] = assay: Inhibition of LPS-stimulated NO production in mouse RAW264.7 cells incubated for 24 hrs by Griess reagent based analysis; assay type: functional, cell-based; settings: dose 1-128 µg/ml
RAW264.7 [27] = assay: Inhibition of LPS-stimulated TNF-alpha production in mouse RAW264.7 cells at 1 to 128 ug/ml incubated for 24 hrs by ELISA analysis; assay type: functional, cell-based; settings: dose 1-128 µg/ml
RAW264.7 [28] = assay: Inhibition of LPS-stimulated IL-1beta production in mouse RAW264.7 cells at 1 to 128 ug/ml incubated for 24 hrs by ELISA analysis; assay type: functional, cell-based; settings: dose 1-128 µg/ml
RAW264.7 [29] = assay: Inhibition of LPS-stimulated IL-8 production in mouse RAW264.7 cells at 1 to 128 ug/ml incubated for 24 hrs by ELISA analysis; assay type: functional, cell-based; settings: dose 1-128 µg/ml
Cell membrane = assay: Disruption of membrane integrity in Salmonella typhimurium DT104 assessed as increase in fluorescence intensity at 0.5 to 2 times of MIC incubated for 15 mins by PI staining based flow cytometric analysis; assay type: subcellular; settings: Salmonella enterica subsp. enterica serovar Typhimurium
Salmonella typhimurium [30] = assay: Antibacterial activity against Salmonella typhimurium DT104 infected in mouse RAW264.7 cells assessed as reduction in bacterial cells at 1 times of MIC measured for 180 mins by MH agar based serial dilution method; assay type: functional, organism-based; settings: Salmonella enterica subsp. enterica serovar Typhimurium

| Compound | MIC (Staphylococcus aureus [1]) | MIC (Staphylococcus aureus [2]) | MIC [3] | MIC (Enterococcus faecalis) | MIC (Escherichia coli) | MIC (Salmonella paratyphi) | MIC [4] | MIC [5] | MIC [6] | MIC [7] | MIC (Salmonella enteritidis) | MIC [8] | MIC (Salmonella typhimurium [9]) | MIC (Salmonella typhimurium [10]) | MIC [11] | MIC [12] | MIC (Salmonella typhimurium [13]) | MIC (Candida albicans) | further results |
| --- | --- | --- | --- | --- | --- | --- | --- | --- | --- | --- | --- | --- | --- | --- | --- | --- | --- | --- | --- |
| C[C@@H](O)[C@H](NC(=O)[C@H](CS)NC(=O)[C@H](CCCCN)NC(=O)[C@H](Cc1c[nH]c2ccccc12)NC(=O)[C@H](CCCCN)NC(=O)[C@H](Cc1c[nH]c2ccccc12)NC(=O)[C@H](CCCCN)NC(=O)[C@@H](N)Cc1c[nH]c2ccccc12)C(=O)N[C@@H](CCCCN)C(=O)N[C@@H](CO)C(=O)NCC(=O)N[C@@H](CS)C(=O)N[C@@H](CCCCN)C(=O)N[C@@H](Cc1c[nH]c2ccccc12)C(=O)N[C@@H](CCCCN)C(=O)N[C@@H](Cc1c[nH]c2ccccc12)C(=O)N[C@@H](CCCCN)C(=O)N[C@@H](Cc1c[nH]c2ccccc12)C(N)=O (H-WKWKWKCTKSGCKWKWKW-NH2) | 4 µg/mL (≈ 1.61 µM) | 4 µg/mL (≈ 1.61 µM) | 4 µg/mL (≈ 1.61 µM) | 2 µg/mL (≈ 0.805 µM) | 4 µg/mL (≈ 1.61 µM) | 4 µg/mL (≈ 1.61 µM) | 1 µg/mL (≈ 0.403 µM) | 4 µg/mL (≈ 1.61 µM) | 0.5 µg/mL (≈ 0.201 µM) | 16 µg/mL (≈ 6.44 µM) | 16 µg/mL (≈ 6.44 µM) | 4 µg/mL (≈ 1.61 µM) | 32 µg/mL (≈ 12.9 µM) | 4 µg/mL (≈ 1.61 µM) | > 128 µg/mL | 8 µg/mL (≈ 3.22 µM) | 32 µg/mL (≈ 12.9 µM) | 32 µg/mL (≈ 12.9 µM) | MHC (Erythrocyte): 32 µg/mL; MIC (Salmonella typhimurium [14]): > 128 µg/mL; MIC (Salmonella typhimurium [15]): > 128 µg/mL; MIC (Salmonella typhimurium [16]): > 128 µg/mL; MIC (Salmonella typhimurium [17]): > 128 µg/mL; MIC (Salmonella typhimurium [18]): > 128 µg/mL; MIC (Salmonella typhimurium [19]): > 128 µg/mL; MIC (Salmonella typhimurium [20]): 64 µg/mL (≈ 25.8 µM); MIC (Salmonella typhimurium [21]): 128 µg/mL (≈ 51.5 µM); hemolysis at 1 h, 128 ug/ml [22]: 30.8%; viability at 24 h, 128 ug/ml [23]: 36.6%; Activity (Salmonella typhimurium [24]): Tde; Activity (Salmonella typhimurium [25]): Dose-Dependent Effect; Activity (Lipopolysaccharide (LPS)): Dose-Dependent Effect; inhibition (RAW264.7 [26]): Dose-Dependent Effect; inhibition (RAW264.7 [27]): Active; inhibition (RAW264.7 [28]): Active; inhibition (RAW264.7 [29]): Active; Activity (Cell membrane): Active |
| CN[C@@H]1[C@H](O[C@H]2[C@H](O[C@H]3[C@H](O)[C@@H](O)[C@H](N=C(N)N)[C@@H](O)[C@@H]3N=C(N)N)O[C@@H](C)[C@]2(O)C=O)O[C@@H](CO)[C@H](O)[C@H]1O [STREPTOMYCIN] | 4 µg/mL (≈ 6.88 µM) | 8 µg/mL (≈ 13.8 µM) | 0.25 µg/mL (≈ 0.43 µM) | 64 µg/mL (≈ 110 µM) | 64 µg/mL (≈ 110 µM) | 32 µg/mL (≈ 55 µM) | 32 µg/mL (≈ 55 µM) | 64 µg/mL (≈ 110 µM) | 64 µg/mL (≈ 110 µM) | 32 µg/mL (≈ 55 µM) | 16 µg/mL (≈ 27.5 µM) | 2 µg/mL (≈ 3.44 µM) | 32 µg/mL (≈ 55 µM) | 64 µg/mL (≈ 110 µM) | > 128 µg/mL | 128 µg/mL (≈ 220 µM) | 128 µg/mL (≈ 220 µM) | 128 µg/mL (≈ 220 µM) | Activity (Salmonella typhimurium [30]): Active |
